Measured values: US12281080B2, “Quinoline-based compounds and methods of inhibiting CDK8/19” (University of South Carolina, priority 2018, dated 2025)

Legend:
MAP3K2 = MAP3K2 (Homo sapiens (Human), UniProt Q9Y2U5); assay: KINOMEscan scanMAX; type: binding; details: 2000 nM; read-out: Percent Control
PFTK1 (CDK14) = PFTK1 (CDK14) (Homo sapiens (Human), UniProt O94921); assay: KINOMEscan scanMAX; type: binding; details: 2000 nM; read-out: Percent Control
PIK3CA(H1047L) = PIK3CA(H1047L) (Homo sapiens (Human), UniProt P42336, H1047L); assay: KINOMEscan scanMAX; type: binding; details: 2000 nM; read-out: Percent Control
EIF2AK1 = EIF2AK1 (Homo sapiens (Human), UniProt Q9BQI3); assay: KINOMEscan scanMAX; type: binding; details: 2000 nM; read-out: Percent Control
Chain of EIF2AK1 (Q9BQI3 whole entry): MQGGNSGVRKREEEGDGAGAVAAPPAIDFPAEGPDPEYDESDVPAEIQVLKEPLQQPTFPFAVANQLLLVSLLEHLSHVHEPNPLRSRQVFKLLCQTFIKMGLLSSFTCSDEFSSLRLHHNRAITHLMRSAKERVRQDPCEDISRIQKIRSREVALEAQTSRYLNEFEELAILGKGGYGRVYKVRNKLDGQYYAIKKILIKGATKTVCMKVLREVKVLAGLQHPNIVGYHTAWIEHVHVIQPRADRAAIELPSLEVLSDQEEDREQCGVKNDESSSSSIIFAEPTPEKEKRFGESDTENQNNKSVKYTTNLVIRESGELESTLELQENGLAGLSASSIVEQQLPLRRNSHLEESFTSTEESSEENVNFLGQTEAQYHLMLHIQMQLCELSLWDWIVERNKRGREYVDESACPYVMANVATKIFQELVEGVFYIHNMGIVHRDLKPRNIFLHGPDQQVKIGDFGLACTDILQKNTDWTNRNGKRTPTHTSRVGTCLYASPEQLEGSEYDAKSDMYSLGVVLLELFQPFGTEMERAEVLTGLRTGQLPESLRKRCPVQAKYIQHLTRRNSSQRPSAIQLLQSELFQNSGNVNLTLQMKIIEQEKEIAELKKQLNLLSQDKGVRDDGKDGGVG

WNK4 = WNK4 (Homo sapiens (Human), UniProt Q96J92); assay: KINOMEscan scanMAX; type: binding; details: 2000 nM; read-out: Percent Control
ABL1-nonphosphorylated = ABL1-nonphosphorylated (Homo sapiens (Human), UniProt P00519); assay: KINOMEscan scanMAX; type: binding; details: 2000 nM; read-out: Percent Control
PRP4 (PRPF4B) = PRP4 (PRPF4B) (Homo sapiens (Human), UniProt Q13523); assay: KINOMEscan scanMAX; type: binding; details: 2000 nM; read-out: Percent Control
FLT4 = FLT4 (Homo sapiens (Human), UniProt P35916); assay: KINOMEscan scanMAX; type: binding; details: 2000 nM; read-out: Percent Control
PRKCI = PRKCI (Homo sapiens (Human), UniProt P41743); assay: KINOMEscan scanMAX; type: binding; details: 2000 nM; read-out: Percent Control
PIP5K2B (PIP4K2B) = PIP5K2B (PIP4K2B) (Homo sapiens (Human), UniProt P78356); assay: KINOMEscan scanMAX; type: binding; details: 2000 nM; read-out: Percent Control
[1] = target: RSK4(Kin.Dom.1-N-terminal) (RPS6KA6) (Homo sapiens (Human), UniProt Q9UK32); assay: KINOMEscan scanMAX; type: binding; details: 2000 nM; read-out: Percent Control
CAMK2A = CAMK2A (Homo sapiens (Human), UniProt Q9UQM7); assay: KINOMEscan scanMAX; type: binding; details: 2000 nM; read-out: Percent Control
ZAP70 = ZAP70 (Homo sapiens (Human), UniProt P43403); assay: KINOMEscan scanMAX; type: binding; details: 2000 nM; read-out: Percent Control
DMPK2 (CDC42BPG) = DMPK2 (CDC42BPG) (Homo sapiens (Human), UniProt Q6DT37); assay: KINOMEscan scanMAX; type: binding; details: 2000 nM; read-out: Percent Control
ROCK2 = ROCK2 (Homo sapiens (Human), UniProt O75116); assay: KINOMEscan scanMAX; type: binding; details: 2000 nM; read-out: Percent Control
FLT3(ITD) = assay: KINOMEscan scanMAX; type: binding, human; details: 2000 nM
HIPK4 = HIPK4 (Homo sapiens (Human), UniProt Q8NE63); assay: KINOMEscan scanMAX; type: binding; details: 2000 nM; read-out: Percent Control
TEC = TEC (Homo sapiens (Human), UniProt P42680); assay: KINOMEscan scanMAX; type: binding; details: 2000 nM; read-out: Percent Control
Chain of TEC (P42680 whole entry): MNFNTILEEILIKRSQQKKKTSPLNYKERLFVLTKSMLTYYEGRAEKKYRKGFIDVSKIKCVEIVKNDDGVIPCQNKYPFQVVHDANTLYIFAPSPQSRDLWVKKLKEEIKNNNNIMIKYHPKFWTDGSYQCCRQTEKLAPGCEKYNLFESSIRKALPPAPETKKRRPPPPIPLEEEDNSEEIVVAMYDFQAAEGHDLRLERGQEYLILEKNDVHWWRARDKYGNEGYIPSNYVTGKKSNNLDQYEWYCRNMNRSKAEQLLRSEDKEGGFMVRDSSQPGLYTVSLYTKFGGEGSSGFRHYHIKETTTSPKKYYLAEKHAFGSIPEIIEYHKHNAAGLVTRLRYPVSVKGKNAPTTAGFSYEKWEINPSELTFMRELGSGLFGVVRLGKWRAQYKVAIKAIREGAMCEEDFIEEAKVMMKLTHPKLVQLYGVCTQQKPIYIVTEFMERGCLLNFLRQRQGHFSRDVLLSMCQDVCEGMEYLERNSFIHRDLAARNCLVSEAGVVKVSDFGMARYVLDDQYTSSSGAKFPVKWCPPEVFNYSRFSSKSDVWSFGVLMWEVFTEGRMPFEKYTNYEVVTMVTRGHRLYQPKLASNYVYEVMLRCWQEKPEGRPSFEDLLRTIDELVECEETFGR

TNK2 = TNK2 (Homo sapiens (Human), UniProt Q07912); assay: KINOMEscan scanMAX; type: binding; details: 2000 nM; read-out: Percent Control
Chain of TNK2 (Q07912 whole entry): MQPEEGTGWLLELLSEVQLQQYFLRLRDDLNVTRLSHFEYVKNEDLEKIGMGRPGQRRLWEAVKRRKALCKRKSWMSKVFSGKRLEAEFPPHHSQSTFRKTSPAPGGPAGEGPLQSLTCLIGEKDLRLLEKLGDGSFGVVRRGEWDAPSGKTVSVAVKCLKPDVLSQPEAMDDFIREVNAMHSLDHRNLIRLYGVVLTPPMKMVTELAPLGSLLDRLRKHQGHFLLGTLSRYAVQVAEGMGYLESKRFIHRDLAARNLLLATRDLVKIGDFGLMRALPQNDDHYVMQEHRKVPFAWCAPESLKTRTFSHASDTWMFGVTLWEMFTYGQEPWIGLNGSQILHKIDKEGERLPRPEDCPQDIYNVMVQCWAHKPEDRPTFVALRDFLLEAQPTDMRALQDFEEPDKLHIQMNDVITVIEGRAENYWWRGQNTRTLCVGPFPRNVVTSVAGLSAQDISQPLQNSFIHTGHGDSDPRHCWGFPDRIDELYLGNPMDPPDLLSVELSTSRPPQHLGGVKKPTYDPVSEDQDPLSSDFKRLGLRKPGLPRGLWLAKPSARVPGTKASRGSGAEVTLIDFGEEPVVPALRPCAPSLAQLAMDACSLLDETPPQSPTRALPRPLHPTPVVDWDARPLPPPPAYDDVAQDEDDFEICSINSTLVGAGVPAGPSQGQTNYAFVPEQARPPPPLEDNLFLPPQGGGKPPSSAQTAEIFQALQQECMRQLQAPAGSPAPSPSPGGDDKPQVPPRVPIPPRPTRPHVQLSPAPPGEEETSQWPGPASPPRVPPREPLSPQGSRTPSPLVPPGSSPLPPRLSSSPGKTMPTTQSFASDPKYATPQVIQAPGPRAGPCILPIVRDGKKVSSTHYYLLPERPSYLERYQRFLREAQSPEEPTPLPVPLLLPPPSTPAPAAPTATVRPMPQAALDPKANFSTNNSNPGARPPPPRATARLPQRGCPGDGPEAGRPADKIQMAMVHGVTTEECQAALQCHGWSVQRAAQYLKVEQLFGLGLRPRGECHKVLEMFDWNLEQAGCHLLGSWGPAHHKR

FES = FES (Homo sapiens (Human), UniProt P07332); assay: KINOMEscan scanMAX; type: binding; details: 2000 nM; read-out: Percent Control
[2] = target: JAK1(JH1domain-catalytic) (Homo sapiens (Human), UniProt P23458); assay: KINOMEscan scanMAX; type: binding; details: 2000 nM; read-out: Percent Control
TNNI3K = TNNI3K (Homo sapiens (Human), UniProt Q59H18); assay: KINOMEscan scanMAX; type: binding; details: 2000 nM; read-out: Percent Control
BRK (PTK6) = BRK (PTK6) (Homo sapiens (Human), UniProt Q13882); assay: KINOMEscan scanMAX; type: binding; details: 2000 nM; read-out: Percent Control
AMPK-alpha2 (PRKAA2) = AMPK-alpha2 (PRKAA2) (Homo sapiens (Human), UniProt P54646); assay: KINOMEscan scanMAX; type: binding; details: 2000 nM; read-out: Percent Control
STK35 = STK35 (Homo sapiens (Human), UniProt Q8TDR2); assay: KINOMEscan scanMAX; type: binding; details: 2000 nM; read-out: Percent Control
MAP3K15 = MAP3K15 (Homo sapiens (Human), UniProt Q6ZN16); assay: KINOMEscan scanMAX; type: binding; details: 2000 nM; read-out: Percent Control
[3] = test system: 468 human kinases and disease relevant mutant variants; assay: KINOMEscan scanMAX panel, whole panel; type: binding; details: 2,000 nM; CDK2, 3, 4, 5, 7, 9, 11A, 11B, 13, 14, 15, 16, 17, 18, CDKL1, CDKL3, CDKL5
MAP4K5 = MAP4K5 (Homo sapiens (Human), UniProt Q9Y4K4); assay: KINOMEscan scanMAX; type: binding; details: 2000 nM; read-out: Percent Control
BIKE (BMP2K) = BIKE (BMP2K) (Homo sapiens (Human), UniProt Q9NSY1); assay: KINOMEscan scanMAX; type: binding; details: 2000 nM; read-out: Percent Control
MLK3 (MAP3K11) = MLK3 (MAP3K11) (Homo sapiens (Human), UniProt Q16584); assay: KINOMEscan scanMAX; type: binding; details: 2000 nM; read-out: Percent Control
[4] = target: ABL1(H396P)-phosphorylated (Homo sapiens (Human), UniProt P00519, H396P); assay: KINOMEscan scanMAX; type: binding; details: 2000 nM; read-out: Percent Control
ERK2 (MAPK1) = ERK2 (MAPK1) (Homo sapiens (Human), UniProt P28482); assay: KINOMEscan scanMAX; type: binding; details: 2000 nM; read-out: Percent Control
Chain of ERK2 (MAPK1) (P28482 whole entry): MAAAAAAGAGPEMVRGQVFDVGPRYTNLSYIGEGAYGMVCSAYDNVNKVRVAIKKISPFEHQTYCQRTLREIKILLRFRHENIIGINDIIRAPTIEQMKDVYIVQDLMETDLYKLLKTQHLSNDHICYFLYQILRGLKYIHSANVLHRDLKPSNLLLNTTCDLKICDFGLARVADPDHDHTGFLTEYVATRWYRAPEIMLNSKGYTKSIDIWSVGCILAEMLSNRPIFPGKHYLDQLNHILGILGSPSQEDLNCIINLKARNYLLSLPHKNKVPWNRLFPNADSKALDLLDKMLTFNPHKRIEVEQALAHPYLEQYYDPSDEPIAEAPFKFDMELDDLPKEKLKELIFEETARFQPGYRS

GRK4 = GRK4 (Homo sapiens (Human), UniProt P32298); assay: KINOMEscan scanMAX; type: binding; details: 2000 nM; read-out: Percent Control
TXK = TXK (Homo sapiens (Human), UniProt P42681); assay: KINOMEscan scanMAX; type: binding; details: 2000 nM; read-out: Percent Control
PRKD3 = PRKD3 (Homo sapiens (Human), UniProt O94806); assay: KINOMEscan scanMAX; type: binding; details: 2000 nM; read-out: Percent Control
PRKX = PRKX (Homo sapiens (Human), UniProt P51817); assay: KINOMEscan scanMAX; type: binding; details: 2000 nM; read-out: Percent Control
RET(M918T) = RET(M918T) (Homo sapiens (Human), UniProt P07949, M918T); assay: KINOMEscan scanMAX; type: binding; details: 2000 nM; read-out: Percent Control
Chain of RET(M918T) (P07949 29-1114 M918T): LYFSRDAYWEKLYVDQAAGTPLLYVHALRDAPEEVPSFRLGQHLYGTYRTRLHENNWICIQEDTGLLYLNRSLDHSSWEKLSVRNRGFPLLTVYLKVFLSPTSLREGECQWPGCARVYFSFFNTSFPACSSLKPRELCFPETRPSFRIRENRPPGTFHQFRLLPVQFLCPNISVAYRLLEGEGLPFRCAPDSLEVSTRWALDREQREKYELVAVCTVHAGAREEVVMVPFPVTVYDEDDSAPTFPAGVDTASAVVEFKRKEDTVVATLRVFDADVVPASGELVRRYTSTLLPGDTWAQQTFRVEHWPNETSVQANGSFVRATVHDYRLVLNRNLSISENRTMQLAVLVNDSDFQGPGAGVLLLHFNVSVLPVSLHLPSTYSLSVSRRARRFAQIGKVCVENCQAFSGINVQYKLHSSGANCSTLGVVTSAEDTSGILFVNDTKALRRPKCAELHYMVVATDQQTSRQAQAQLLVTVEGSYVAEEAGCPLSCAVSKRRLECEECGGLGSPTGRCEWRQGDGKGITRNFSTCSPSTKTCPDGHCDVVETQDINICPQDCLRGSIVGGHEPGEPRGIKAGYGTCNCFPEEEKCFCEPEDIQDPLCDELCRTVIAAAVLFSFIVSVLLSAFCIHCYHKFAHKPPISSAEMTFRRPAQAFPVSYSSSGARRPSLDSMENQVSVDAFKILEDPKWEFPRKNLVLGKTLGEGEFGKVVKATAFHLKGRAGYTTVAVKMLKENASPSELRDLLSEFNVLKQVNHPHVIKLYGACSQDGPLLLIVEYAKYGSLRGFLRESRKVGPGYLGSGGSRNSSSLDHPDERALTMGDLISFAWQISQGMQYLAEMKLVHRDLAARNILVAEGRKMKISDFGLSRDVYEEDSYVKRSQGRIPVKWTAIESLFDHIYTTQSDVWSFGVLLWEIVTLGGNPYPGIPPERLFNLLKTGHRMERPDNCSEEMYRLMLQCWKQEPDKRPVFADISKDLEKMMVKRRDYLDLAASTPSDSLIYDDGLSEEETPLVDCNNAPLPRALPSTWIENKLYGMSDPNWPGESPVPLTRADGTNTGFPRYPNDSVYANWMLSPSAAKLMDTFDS

PRKCQ = PRKCQ (Homo sapiens (Human), UniProt Q04759); assay: KINOMEscan scanMAX; type: binding; details: 2000 nM; read-out: Percent Control
Chain of PRKCQ (Q04759 whole entry): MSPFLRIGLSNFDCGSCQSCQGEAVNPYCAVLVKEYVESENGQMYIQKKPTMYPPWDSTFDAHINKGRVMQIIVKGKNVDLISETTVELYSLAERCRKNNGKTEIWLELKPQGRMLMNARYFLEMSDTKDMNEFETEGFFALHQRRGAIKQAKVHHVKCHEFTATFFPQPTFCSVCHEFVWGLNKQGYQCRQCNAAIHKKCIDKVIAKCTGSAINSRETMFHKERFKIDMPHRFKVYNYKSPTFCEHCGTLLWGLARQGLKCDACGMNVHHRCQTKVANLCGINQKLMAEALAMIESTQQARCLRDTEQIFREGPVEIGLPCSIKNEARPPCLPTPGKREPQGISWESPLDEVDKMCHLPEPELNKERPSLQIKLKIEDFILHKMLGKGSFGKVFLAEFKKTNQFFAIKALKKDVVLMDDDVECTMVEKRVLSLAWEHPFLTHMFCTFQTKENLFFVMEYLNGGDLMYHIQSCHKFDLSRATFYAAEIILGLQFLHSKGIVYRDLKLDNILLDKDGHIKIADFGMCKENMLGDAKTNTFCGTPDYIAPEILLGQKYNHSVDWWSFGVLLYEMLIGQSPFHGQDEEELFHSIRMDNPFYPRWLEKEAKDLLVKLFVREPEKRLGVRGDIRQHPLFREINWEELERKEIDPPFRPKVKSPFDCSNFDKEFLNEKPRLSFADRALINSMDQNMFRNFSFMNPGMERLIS

ERK1 (MAPK3) = ERK1 (MAPK3) (Homo sapiens (Human), UniProt P27361); assay: KINOMEscan scanMAX; type: binding; details: 2000 nM; read-out: Percent Control

Chain of PFTK1 (CDK14) (O94921 whole entry): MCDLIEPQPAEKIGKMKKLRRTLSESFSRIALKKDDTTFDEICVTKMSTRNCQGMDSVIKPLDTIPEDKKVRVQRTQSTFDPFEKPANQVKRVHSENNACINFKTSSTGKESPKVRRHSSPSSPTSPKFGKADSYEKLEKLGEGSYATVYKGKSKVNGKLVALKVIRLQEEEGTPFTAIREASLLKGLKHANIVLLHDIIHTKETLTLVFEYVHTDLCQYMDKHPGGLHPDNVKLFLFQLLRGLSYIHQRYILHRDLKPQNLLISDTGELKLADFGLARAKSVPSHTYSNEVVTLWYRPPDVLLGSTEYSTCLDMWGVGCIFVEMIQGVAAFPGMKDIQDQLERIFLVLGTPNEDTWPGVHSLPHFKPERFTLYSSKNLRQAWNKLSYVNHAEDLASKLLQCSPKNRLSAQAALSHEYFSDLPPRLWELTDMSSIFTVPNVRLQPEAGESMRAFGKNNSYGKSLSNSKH

`CN1CCN(C(=O)c2ccc3cc(CCNc4ccnc5ccc(C#N)cc45)ccc3c2)CC1` [compound 6148, 4-((2-(6-(4-methylpiperazine-1-carbonyl)naphthalen-2-yl)ethyl)amino)quinoline-6-carbonitrile] gave a remaining binding at 2 µM (MAP3K2) of 68%, a remaining binding at 2 µM (PFTK1 (CDK14)) of 98% and a remaining binding at 2 µM (PIK3CA(H1047L)) of 84%. It also gave a remaining binding at 2 µM (EIF2AK1) of 84%, a remaining binding at 2 µM (WNK4) of 69% and a remaining binding at 2 µM (ABL1-nonphosphorylated) of 71%. The remaining binding at 2 µM (PRP4 (PRPF4B)) was 71%, the remaining binding at 2 µM (FLT4) was 97% and the remaining binding at 2 µM (PRKCI) was 89%. For the same compound, the remaining binding at 2 µM (PIP5K2B (PIP4K2B)) was 85%, the remaining binding at 2 µM [1] was 60% and the remaining binding at 2 µM (CAMK2A) was 100%. For the same compound, the remaining binding at 2 µM (ZAP70) was 81%, the remaining binding at 2 µM (DMPK2 (CDC42BPG)) was 83% and the remaining binding at 2 µM (ROCK2) was 71%. The “Percent Control” value (FLT3(ITD)) was 97%, the remaining binding at 2 µM (HIPK4) was 75% and the remaining binding at 2 µM (TEC) was 100%. For the same compound, the remaining binding at 2 µM (TNK2) was 94%, the remaining binding at 2 µM (FES) was 81% and the remaining binding at 2 µM [2] was 94%. It also gave a remaining binding at 2 µM (TNNI3K) of 100%, a remaining binding at 2 µM (BRK (PTK6)) of 97% and a remaining binding at 2 µM (AMPK-alpha2 (PRKAA2)) of 42%. For the same compound, the remaining binding at 2 µM (STK35) was 100%, the remaining binding at 2 µM (MAP3K15) was 83% and the “POC of the other members of the CDK family in the scanMAX panel” value [3] was at least 64 POC. It also gave a remaining binding at 2 µM (MAP4K5) of 95%, a remaining binding at 2 µM (BIKE (BMP2K)) of 97% and a remaining binding at 2 µM (MLK3 (MAP3K11)) of 99%. For the same compound, the remaining binding at 2 µM [4] was 81%, the remaining binding at 2 µM (ERK2 (MAPK1)) was 93% and the remaining binding at 2 µM (GRK4) was 100%. For the same compound, the remaining binding at 2 µM (TXK) was 94%, the remaining binding at 2 µM (PRKD3) was 100% and the remaining binding at 2 µM (PRKX) was 100%. It also gave a remaining binding at 2 µM (RET(M918T)) of 85%, a remaining binding at 2 µM (PRKCQ) of 100% and a remaining binding at 2 µM (ERK1 (MAPK3)) of 95%.
